Counter-ions that a name gives are not always drawn.
Columns and labels:
Androgen AR receptor = target: T1, Androgen AR receptor (Homo sapiens, UniProt P10275); assay: Receptor Selection and Amplification (R-SAT) assay, androgen receptor agonist activity; format: cell-based; conditions: for Emax: NIH3T3, read-out: % Efficacy
T1 construct: expressed in transfected cells; host or cells: NIH3T3 cells
T1 sequence (P10275 1-920): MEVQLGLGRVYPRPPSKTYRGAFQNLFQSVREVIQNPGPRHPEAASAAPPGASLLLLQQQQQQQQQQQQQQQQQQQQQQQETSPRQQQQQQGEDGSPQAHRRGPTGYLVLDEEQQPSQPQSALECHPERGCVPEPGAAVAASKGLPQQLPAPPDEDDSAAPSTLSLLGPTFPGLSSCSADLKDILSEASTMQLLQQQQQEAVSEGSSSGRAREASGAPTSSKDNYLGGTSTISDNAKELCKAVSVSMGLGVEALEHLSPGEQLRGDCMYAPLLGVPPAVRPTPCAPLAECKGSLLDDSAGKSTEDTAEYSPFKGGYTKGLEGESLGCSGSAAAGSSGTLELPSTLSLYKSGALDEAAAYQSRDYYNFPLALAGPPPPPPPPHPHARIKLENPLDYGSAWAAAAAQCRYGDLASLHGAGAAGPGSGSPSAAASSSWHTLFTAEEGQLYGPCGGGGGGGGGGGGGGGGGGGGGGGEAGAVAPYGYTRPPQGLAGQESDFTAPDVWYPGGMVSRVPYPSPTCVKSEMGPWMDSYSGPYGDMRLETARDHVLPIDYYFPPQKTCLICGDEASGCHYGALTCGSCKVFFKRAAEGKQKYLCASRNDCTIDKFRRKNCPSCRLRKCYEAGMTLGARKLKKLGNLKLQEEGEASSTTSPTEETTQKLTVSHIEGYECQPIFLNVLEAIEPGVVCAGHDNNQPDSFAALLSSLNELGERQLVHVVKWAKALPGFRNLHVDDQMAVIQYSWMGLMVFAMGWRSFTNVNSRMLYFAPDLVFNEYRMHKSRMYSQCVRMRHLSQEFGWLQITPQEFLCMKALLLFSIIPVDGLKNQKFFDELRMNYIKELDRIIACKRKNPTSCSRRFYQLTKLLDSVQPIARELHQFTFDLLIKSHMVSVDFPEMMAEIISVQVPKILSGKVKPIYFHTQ
Protocol: Receptor Selection and Amplification (R-SAT) Assays. The functional receptor assay, Receptor Selection and Amplification Technology (R-SAT™), was used with minor modifications from the procedure described previously (Brann, M. R. U.S. Pat. No. 5,707,798, 1998) to screen compounds for efficacy at the Androgen AR receptor. Briefly, NIH3T3 cells were grown in roller bottles to 70-80% confluence. Cells were then transfected for 12-16 h with plasmid DNAs using Polyfect (Qiagen Inc.) as per the manufacturer's protocol. R-SAT assays were typically performed by transfecting 30 ug/bottle of receptor and 50 ug/bottle of β-galactosidase plasmid DNA. All receptor and helper constructs used were in mammalian expression vectors. Helpers are defined as signaling molecules that modulate both ligand-dependent and/or ligand-independent function of the AR receptor, typically co-activators. NIH3T3 cells were transfected for 12-16 h, then trypsinized and frozen in DMSO. Frozen cells were later thawed, plated at 10,000-40,000 cells per well of a 96 well plate containing drug. Cells were then grown in a humidified atmosphere with 5% ambient CO2 for five days. Media was then removed from the plates and marker gene activity was measured by the addition of the β-galactosidase substrate o-nitrophenyl β-D-galactopyranoside (ONPG, in PBS with 5% NP-40). The resulting colorimetric reaction was measured in a spectrophotometric plate reader (Titertek Inc.) at […]. All data were analyzed using the computer program XLFit (IDBSm).

[1] = test system: castrated male Sprague Dawley rats; assay: Wet tissue weights (prostate, seminal vesicle, levator ani muscle) after daily s.c. administration for two weeks; format: in vivo, rat; conditions: for wet weight of prostate / wet weight of seminal vesicle: castrated rats
Protocol: (§1) Androgen Receptor agonist 116BG33 was administered s.c. daily for two weeks to castrated male Sprague Dawley rats (n=3). The effects of 116BG33 (3, 10, 30 mg/kg) were compared to testosterone propionate (0.1 and 1 mg/kg; positive control) and vehicle (10% Tween80; negative control). Blood and wet weights of prostate gland and seminal vesicle were measured after sacrifice that occurred 24 hours after the last dose. Blood was collected in heparin collection tubes after sacrifice that occurred 24 hours after the last dose. Blood was centrifuged and plasma collected and plasma samples frozen.

[2] = test system: castrated male Sprague Dawley rats; assay: Rat luteinizing hormone (LH) plasma levels by ELISA after daily s.c. administration for 14 days; format: in vivo; conditions: for dose at which complete reversal of plasma LH levels is evident: s.c. daily for 14 days
Protocol: as §1
Rat luteinizing hormone (LH) plasma levels were determined using an enzyme linked immunoabsorbent assay (ELISA) from Amersham as per manufacturer's instructions. The solid phase assay is based on the competition between unlabeled rLH and a fixed quantity of biotin labelled rLH for a limited amount of rLH specific antibody. A conjugate streptavidin/peroxidase allows for signal amplification and detection in presence of the substrate.

[3] = 3, 10 or 30 mg/kg s.c. daily for two weeks, compared to vehicle
[4] = 0.1 mg/kg s.c. daily for two weeks, compared to vehicle
[5] = 1 mg/kg s.c. daily for two weeks, compared to vehicle

SMILES: CC1CCC(C)N1c1ccc([N+](=O)[O-])c2ccccc12 (stereo not drawn)
- EC50 (Androgen AR receptor): 7.94 nM
- Emax (Androgen AR receptor): 94%

SMILES: N#Cc1ccc(N2[C@@H]3CC[C@H]2CC(NCCc2c[nH]cn2)C3)c2ccccc12 (mixture of isomers) [156AF11-229, 4-{3-[2-(1H-Imidazol-4-yl)ethylamino]-8-azabicyclo[3.2.1]oct-8-yl}naphthalene-1-carbonitrile, dihydrochloride]
- EC50 (Androgen AR receptor): 158 nM
- Emax (Androgen AR receptor): 44%

SMILES: O=[N+]([O-])c1ccc(N2CCCC2)c2ccccc12 [116BG33, 1-(4-Nitronaphthalen-1-yl)pyrrolidine]
- wet weight of prostate [1, 3]: did not have any effect
- wet weight of seminal vesicle [1, 3]: did not have any effect
- dose at which complete reversal of plasma LH levels is evident [2]: 30 mg/kg
- plasma LH levels ([2]; sub-cutaneous, 3, 10, 30 mg/kg, 14 days): reduces LH levels to physiological norms

SMILES: N#Cc1ccc(N2CCCCC2)c2ccccc12 [136BG73-10, 4-Piperidin-1-ylnaphthalene-1-carbonitrile]
- EC50 (Androgen AR receptor): 7.94 nM
- Emax (Androgen AR receptor): 66%

SMILES: N#Cc1ccc(N2CCC(O)C2)c2ccccc12 (stereo not drawn) [136BG85-2, 4-(3-Hydroxypyrrolidin-1-yl)naphthalene-1-carbonitrile]
- EC50 (Androgen AR receptor): 79.4 nM
- Emax (Androgen AR receptor): 41%

SMILES: N#Cc1ccc(N2[C@@H]3CC[C@H]2CC(O)C3)c2ccccc12 (stereo partly drawn) [154BG31, 4-(3-endo-Hydroxy-8-azabicyclo[3.2.1]oct-8-yl)naphthalene-1-carbonitrile]
- wet tissue weights (prostate, seminal vesicle, levator ani muscle) ([1]; 3 mg/kg s.c. daily for two weeks): did not appear to significantly alter
- dose relative to TP at which negative side effects (increased seminal vesicle and prostate size) become evident ([1]; compared to TP): at least 100 × of TP
- wet tissue weights (prostate, seminal vesicle, levator ani muscle) ([1]; higher doses (3 and 10 mg/kg) daily, not to the extent of TP): appeared to significantly increase
- dose at which complete reversal of plasma LH levels is evident [2]: 10 mg/kg
- plasma LH levels ([2]; various doses, s.c. for 14 days): dose-dependent suppression

SMILES: N#Cc1ccc(N2C3CCC2CC(OC(=O)CCN2CCOCC2)C3)c2ccccc12 (stereo not drawn) [156AF32-246, 3-Morpholin-4-ylpropionic acid endo-8-(4-cyanonaphthalen-1-yl)-8-azabicyclo[3.2.1]oct-3-yl ester, hydrochloride]
- EC50 (Androgen AR receptor): 39.8 nM
- Emax (Androgen AR receptor): 57%

SMILES: CC1(O)CC2CCC(C1)N2c1ccc(C#N)c2ccccc12 (stereo not drawn) [156AF70-267, 4-(3-Endo-hydroxy-3-exo-methyl-8-azabicyclo[3.2.1]oct-8-yl)naphthalene-1-carbonitrile]
- EC50 (Androgen AR receptor): 2 nM
- Emax (Androgen AR receptor): 88%

SMILES: CC1C=CC(C)N1c1ccc(C#N)c2ccccc12 (stereo not drawn) [196MBT2-7, 4-(2,5-Dimethyl-2,5-dihydropyrrol-1-yl)naphthalene-1-carbonitrile]
- EC50 (Androgen AR receptor): 7.94 nM
- Emax (Androgen AR receptor): 85%

SMILES: CCC(=O)O[C@H]1CC[C@H]2[C@@H]3CCC4=CC(=O)CC[C@]4(C)[C@H]3CC[C@]12C [testosterone propionate]
- wet weight of prostate [1, 4]: did not have any effect
- wet weight of seminal vesicle [1, 4]: did not have any effect
- wet weight of prostate [1, 5]: significant increases
- wet weight of seminal vesicle [1, 5]: significant increases
- wet weight of levator ani muscle [1, 5]: significant increases
- plasma LH levels ([2]; 1 mg/kg, s.c. for 14 days, versus naive rats): restored LH levels to those obtained in naive rats
- plasma LH levels ([2]; chronic administration (14 days), 0.1 and 1 mg/kg, versus naive animals): dose dependent reversal

From patent publication US7268232B2 (Acadia Pharmaceuticals Inc., priority 2004, dated 2007)
